Molecular target: T1, HMG-CoA (Homo sapiens, UniProt P04035)
T1 sequence (P04035 426-888 limits assumed): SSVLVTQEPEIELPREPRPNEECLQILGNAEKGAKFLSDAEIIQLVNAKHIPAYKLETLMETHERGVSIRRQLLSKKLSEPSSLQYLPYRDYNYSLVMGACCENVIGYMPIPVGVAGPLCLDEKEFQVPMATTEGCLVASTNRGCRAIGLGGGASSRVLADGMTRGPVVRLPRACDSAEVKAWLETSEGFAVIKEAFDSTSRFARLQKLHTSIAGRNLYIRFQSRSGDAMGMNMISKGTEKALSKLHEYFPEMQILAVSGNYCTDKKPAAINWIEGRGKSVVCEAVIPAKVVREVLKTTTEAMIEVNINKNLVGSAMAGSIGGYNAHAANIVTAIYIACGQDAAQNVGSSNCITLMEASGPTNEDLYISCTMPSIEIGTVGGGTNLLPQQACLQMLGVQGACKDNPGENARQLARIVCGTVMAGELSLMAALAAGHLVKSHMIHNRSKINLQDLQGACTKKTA
Conditions: FIG. 17; S565 hydrogen bond

Structure (SMILES) | binding sites when binding to HMG-CoA
CC(C)c1nc(N(C)S(C)(=O)=O)nc(-c2ccc(F)cc2)c1/C=C/[C@@H](O)C[C@@H](O)CC(=O)O [rosuvastatin] | many binding sites (S565)
CC(C)c1c(C(=O)Nc2ccccc2)c(-c2ccccc2)c(-c2ccc(F)cc2)n1CC[C@@H](O)C[C@@H](O)CC(=O)O [atorvastatin] | many binding sites (S565)

— US20240093168A1, “TRANS[…] IN CELLS OF ORGANISM INCLUDING HUMAN, T[…], AND TOOL FOR PURIFYING COMPLEX THEREOF” (KAWASAKI GAKUEN EDUCATIONAL FOUNDATION, priority 2021, published 2024)
